# Like-named read-outs stand apart in the source and are kept apart here.
# Experiments:
# [1] = molecular target: T1, hKDR (Homo sapiens, UniProt P35968); assay: Cerep LANCE kinase assay hKDR (S1 assay 32); assay type: biochemical; settings: read-out: KDR
# T1 construct: purchased Cerep (LANCE kinase assay platform, contract assay)
# [2] = molecular target: T2, hp70S6K1 (RPS6KB1) (Homo sapiens, UniProt P23443); assay: Cerep LANCE kinase assay hp70S6K1 (S1 assay 31); assay type: biochemical; settings: read-out: p70S6K1
# T2 construct: purchased Cerep (LANCE kinase assay platform, contract assay)
# [3] = system: HeLa cells; assay: cells; assay type: cell-based
# [4] = molecular target: T3, hJAK2 (Homo sapiens, UniProt O60674); assay: Cerep LANCE kinase assay hJAK2 (S1 assay 33); assay type: biochemical; settings: read-out: JAK2
# T3 construct: purchased Cerep (LANCE kinase assay platform, contract assay)
# [5] = system: INS-1E cells; assay: cells; assay type: cell-based, rat; settings: Rattus norvegicus, INS-1E, read-out: Insulin Secretion
# [6] = system: HCT116 cells treated with a GSK3β inhibitor; assay: cells; assay type: cell-based; settings: Homo sapiens
# [7] = molecular target: T4, hGSK3b (Homo sapiens, UniProt P49841); assay: Cerep LANCE kinase assay hGSK3b (S1 assay 34); assay type: biochemical; settings: read-out: GSK3b
# T4 construct: purchased Cerep (LANCE kinase assay platform, contract assay)
# [8] = system: DLD-1; assay: cells; assay type: cell-based; settings: Homo sapiens, read-out: Basal_Viability ATP DLD-1
# [9] = system: NCI-H716 cells; assay: cells; assay type: cell-based, Human; settings: Homo sapiens, NCI-H716, read-out: GLP 1 Secretion
# [10] = system: SW480; assay: cells; assay type: cell-based; settings: Homo sapiens, read-out: Basal_Viability ATP SW480
# [11] = system: endothelial tube formation in co-cultures of ECFCs and ADSCs treated with VEGF; assay: cells; assay type: cell-based, human; settings: Homo sapiens, read-out: Anti-Angiogenesis
# [12] = system: nuclear β-catenin in C2C12 cells; assay: cells; assay type: cell-based; settings: Mus musculus, read-out: Wnt Pathway
# [13] = molecular target: T5, hFLT3 (Homo sapiens, UniProt P36888); assay: Cerep LANCE kinase assay hFLT3 (S1 assay 35); assay type: biochemical; settings: read-out: FLT3
# T5 construct: purchased Cerep (LANCE kinase assay platform, contract assay)
# [14] = system: HCT116; assay: cells; assay type: cell-based; settings: Homo sapiens, HCT-116, basal, read-out: Basal_Viability ATP HCT116
# [15] = HCT-116, HCT116 pretreated with GSK3b inhibitor, read-out: GSK3b inh pretreated_Viability ATP HCT116
# [16] = Homo sapiens, HeLa, IC50 / EC50; HeLa; read-out: CellCycle G2/M
# [17] = HCT-116, read-out: GSK3b inh pretreated_Viability ATP HCT116
# [18] = IC50 / EC50, endothelial tube area, ADSC/ECFC co-culture
# T4 sequence (P49841 whole entry): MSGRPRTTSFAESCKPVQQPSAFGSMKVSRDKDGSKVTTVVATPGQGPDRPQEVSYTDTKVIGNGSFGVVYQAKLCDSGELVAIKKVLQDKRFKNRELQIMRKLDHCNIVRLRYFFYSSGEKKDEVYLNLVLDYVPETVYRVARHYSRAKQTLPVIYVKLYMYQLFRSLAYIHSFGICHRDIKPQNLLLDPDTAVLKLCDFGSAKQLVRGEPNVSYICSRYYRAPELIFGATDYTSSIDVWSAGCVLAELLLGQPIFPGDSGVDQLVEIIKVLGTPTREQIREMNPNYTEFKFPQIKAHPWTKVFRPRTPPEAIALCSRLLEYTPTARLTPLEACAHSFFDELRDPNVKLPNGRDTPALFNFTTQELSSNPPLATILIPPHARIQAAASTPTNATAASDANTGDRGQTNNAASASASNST
# T2 sequence (P23443 whole entry): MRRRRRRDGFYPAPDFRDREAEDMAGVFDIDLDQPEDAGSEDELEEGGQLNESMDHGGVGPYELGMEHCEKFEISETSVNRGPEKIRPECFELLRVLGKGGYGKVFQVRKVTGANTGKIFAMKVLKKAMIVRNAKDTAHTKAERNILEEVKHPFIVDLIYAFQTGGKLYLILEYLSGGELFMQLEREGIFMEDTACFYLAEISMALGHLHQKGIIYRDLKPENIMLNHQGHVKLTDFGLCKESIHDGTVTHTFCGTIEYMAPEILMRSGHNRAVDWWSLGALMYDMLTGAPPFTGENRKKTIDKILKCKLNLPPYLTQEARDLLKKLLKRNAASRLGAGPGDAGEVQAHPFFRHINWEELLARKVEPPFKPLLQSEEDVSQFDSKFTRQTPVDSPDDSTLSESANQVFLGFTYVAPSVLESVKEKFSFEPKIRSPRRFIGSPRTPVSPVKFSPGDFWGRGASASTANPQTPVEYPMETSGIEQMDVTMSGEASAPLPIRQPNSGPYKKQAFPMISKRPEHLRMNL
# T1 sequence (P35968 20-1356): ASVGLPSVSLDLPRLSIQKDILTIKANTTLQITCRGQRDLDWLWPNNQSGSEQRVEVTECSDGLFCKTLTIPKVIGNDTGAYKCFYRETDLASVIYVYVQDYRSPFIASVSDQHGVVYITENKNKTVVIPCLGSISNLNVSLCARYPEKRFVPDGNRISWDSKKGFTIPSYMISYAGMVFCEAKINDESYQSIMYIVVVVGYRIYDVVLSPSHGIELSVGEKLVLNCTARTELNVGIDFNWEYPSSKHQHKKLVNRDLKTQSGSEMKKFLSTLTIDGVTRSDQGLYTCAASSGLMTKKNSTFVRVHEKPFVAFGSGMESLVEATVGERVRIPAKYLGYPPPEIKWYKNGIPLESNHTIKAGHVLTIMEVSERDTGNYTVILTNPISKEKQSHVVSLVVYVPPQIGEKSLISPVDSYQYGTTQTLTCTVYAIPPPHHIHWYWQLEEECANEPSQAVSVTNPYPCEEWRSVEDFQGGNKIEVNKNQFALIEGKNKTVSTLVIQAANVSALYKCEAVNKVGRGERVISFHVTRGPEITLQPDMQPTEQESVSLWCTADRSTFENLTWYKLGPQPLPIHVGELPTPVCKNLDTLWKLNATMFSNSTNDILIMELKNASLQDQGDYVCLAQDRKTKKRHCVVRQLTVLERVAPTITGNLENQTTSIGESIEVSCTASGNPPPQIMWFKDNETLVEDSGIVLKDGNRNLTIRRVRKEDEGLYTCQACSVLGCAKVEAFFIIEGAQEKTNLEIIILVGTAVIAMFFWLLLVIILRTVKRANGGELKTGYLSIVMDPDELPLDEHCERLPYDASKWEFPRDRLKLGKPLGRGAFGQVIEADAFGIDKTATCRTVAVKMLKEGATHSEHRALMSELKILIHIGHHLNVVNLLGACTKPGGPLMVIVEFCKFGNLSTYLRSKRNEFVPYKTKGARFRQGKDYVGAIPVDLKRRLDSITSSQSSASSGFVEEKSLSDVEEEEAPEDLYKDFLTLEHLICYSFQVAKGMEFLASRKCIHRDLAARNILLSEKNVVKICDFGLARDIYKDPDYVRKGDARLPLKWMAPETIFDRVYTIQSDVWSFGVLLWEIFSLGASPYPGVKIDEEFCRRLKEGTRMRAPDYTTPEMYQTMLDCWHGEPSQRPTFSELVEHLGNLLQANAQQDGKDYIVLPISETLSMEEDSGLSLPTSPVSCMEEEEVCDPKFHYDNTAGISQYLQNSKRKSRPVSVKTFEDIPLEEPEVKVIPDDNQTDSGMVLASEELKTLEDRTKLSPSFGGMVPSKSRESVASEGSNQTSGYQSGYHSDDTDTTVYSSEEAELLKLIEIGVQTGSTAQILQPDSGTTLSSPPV
# T3 sequence (O60674 whole entry): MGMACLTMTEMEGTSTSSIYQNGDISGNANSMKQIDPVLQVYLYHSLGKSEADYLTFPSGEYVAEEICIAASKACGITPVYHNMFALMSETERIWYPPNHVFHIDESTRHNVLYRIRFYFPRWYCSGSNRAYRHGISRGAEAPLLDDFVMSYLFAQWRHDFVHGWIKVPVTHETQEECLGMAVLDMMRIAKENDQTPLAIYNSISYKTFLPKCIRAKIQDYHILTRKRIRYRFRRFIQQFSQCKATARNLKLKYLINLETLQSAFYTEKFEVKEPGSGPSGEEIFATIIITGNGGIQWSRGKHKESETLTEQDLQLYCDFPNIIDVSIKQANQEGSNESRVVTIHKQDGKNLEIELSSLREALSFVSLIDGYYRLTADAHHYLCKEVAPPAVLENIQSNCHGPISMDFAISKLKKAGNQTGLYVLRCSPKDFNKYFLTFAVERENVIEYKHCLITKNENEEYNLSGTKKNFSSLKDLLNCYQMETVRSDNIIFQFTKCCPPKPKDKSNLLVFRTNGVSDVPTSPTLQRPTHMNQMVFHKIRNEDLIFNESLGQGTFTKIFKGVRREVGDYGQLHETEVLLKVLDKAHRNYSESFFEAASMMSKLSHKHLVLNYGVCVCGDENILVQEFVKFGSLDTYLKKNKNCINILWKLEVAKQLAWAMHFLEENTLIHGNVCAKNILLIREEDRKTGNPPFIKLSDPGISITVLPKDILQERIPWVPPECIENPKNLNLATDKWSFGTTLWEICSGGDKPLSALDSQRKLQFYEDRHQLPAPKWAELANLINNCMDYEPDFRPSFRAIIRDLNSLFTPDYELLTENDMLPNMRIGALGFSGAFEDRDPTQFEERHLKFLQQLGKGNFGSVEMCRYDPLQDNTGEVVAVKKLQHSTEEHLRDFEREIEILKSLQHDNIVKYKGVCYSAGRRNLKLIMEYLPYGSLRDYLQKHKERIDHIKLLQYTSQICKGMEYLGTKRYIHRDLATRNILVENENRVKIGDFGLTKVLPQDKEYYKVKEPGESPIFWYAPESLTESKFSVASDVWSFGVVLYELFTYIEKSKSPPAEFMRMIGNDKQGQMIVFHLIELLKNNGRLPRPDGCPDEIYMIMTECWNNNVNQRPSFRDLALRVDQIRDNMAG
# T5 sequence (P36888 27-993): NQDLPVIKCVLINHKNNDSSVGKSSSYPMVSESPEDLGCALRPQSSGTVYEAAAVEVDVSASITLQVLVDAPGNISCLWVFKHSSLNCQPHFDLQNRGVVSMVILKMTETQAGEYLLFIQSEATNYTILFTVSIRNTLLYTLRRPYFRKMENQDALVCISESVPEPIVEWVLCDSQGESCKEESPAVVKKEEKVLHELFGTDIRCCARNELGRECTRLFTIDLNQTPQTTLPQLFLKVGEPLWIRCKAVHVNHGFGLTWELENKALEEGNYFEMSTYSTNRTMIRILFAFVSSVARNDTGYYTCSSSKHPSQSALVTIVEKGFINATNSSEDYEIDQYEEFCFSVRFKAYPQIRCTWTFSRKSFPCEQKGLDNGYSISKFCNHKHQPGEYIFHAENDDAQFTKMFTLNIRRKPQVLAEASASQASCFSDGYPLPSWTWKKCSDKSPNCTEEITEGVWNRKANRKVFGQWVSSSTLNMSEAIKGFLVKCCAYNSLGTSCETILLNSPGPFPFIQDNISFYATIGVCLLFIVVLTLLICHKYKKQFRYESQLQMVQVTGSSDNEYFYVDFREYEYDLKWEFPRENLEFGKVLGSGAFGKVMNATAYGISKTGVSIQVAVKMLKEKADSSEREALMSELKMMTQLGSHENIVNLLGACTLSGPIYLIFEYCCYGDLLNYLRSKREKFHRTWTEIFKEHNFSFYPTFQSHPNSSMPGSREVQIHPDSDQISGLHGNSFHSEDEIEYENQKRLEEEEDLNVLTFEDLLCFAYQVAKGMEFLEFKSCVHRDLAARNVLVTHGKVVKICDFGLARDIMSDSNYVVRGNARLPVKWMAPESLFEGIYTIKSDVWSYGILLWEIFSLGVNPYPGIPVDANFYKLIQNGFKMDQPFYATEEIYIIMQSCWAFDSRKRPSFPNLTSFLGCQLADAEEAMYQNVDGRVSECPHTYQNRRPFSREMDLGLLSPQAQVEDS
Compound,IC50 ([1]; kinase assay),IC50 ([2]; kinase assay),IC50 ([4]; kinase assay),EC50 [5],"IC50 [6, 15]",IC50 ([7]; kinase assay),EC50 [9],IC50 [11],EC50 ([12]; C2C12),IC50 ([13]; kinase assay),IC50 ([14]; HCT116),IC50 [1],IC50 [2],"EC50 [3, 16]",IC50 [4],EC50 ([5]; IC50 / EC50),"IC50 [6, 17]",IC50 [7],"IC50 ([8]; DLD-1, basal)",EC50 ([9]; IC50 / EC50),further results
COc1cc([C@@H]2c3cc4c(cc3[C@H](O)[C@H]3COC(=O)[C@H]23)OCO4)cc(OC)c1OC [Podofilox],> 20 µM,> 20 µM,> 20 µM,> 10 µM,0.0667 µM,> 20 µM,> 10 µM,0.0081 µM,0.0091 µM,> 20 µM,0.184 µM,,,,,,,,,,"EC50 ([3]; Homo sapiens; S2 Table; HeLa; 20 = no response at highest concentration; read-out: CellCycle G2/M): 0.0077 µM; IC50 ([8]; basal, DLD-1): 0.182 µM; IC50 ([10]; basal, SW480): 0.207 µM"
Cc1ccccc1C(=O)Nc1ccc(C(=O)N2CCCC(N(C)C)c3ccccc32)cc1 (stereo not shown) [Mozavaptan],,,,,,,,,,,,> 20 µM,> 20 µM,> 10 µM,> 20 µM,> 10 µM,> 20 µM,> 20 µM,12.8 µM,> 10 µM,"IC50 ([10]; SW480, basal): 3.45 µM; IC50 [11, 18]: > 10 µM; EC50 ([12]; C2C12, IC50 / EC50, C2C12 beta-catenin translocation): 4.56 µM; IC50 [13]: > 20 µM; IC50 [14]: 7.56 µM"
COC(=O)Nc1nc2ccc(C(=O)c3cccs3)cc2[nH]1 [Nocodazole],6.61 µM,> 20 µM,> 20 µM,> 10 µM,1.12 µM,19.9 µM,> 10 µM,0.102 µM,0.0434 µM,> 20 µM,1.08 µM,,,,,,,,,,"EC50 ([3]; Homo sapiens, HeLa, S2 Table; HeLa; 20 = no response at highest concentration; read-out: CellCycle G2/M): 0.0221 µM; IC50 ([8]; DLD-1, basal, DLD-1): 1.66 µM; IC50 ([10]; SW480, basal, SW480): > 20 µM"
COc1ccc(-c2nc3ccc(C4=NNC(=O)CC4C)cc3[nH]2)cc1 (stereo not shown) [Pimobendan],,,,,,,,,,,,> 20 µM,> 20 µM,> 10 µM,> 20 µM,> 10 µM,> 20 µM,> 20 µM,> 20 µM,> 10 µM,"IC50 ([10]; SW480, basal): > 20 µM; IC50 [11, 18]: 2.89 µM; IC50 [13]: 5.13 µM; IC50 [14]: 16 µM"

# — article PMC4503722, “Novel Phenotypic Outcomes Identified for a Public Collection of Approved Drugs from a Publicly Accessible Panel of Assays” (PLoS ONE, 2015)
